The values below come from paper PMC8453635, “Piperidine Azasugars Bearing Lipophilic Chains: Stereoselective Synthesis and Biological Activity as Inhibitors of Glucocerebrosidase (GCase)” (The Journal of Organic Chemistry, 2021).

Assay [1] concerns the target T1, α-mannosidase (Homo sapiens, UniProt O00754).
T1 construct: from leukocytes isolated from healthy donors (controls); from tissue; host or cells: leukocytes from healthy donors, sonicated homogenate
Kind of assay: Human lysosomal glycosidase selectivity screening (leukocyte homogenate). The assay is classed as biochemical. The note with it: 1 mM, read-out: percentage of inhibition, α-Man. The method, then:
(§1) In order to avoid undesired inhibitory side effects of a potential new drug, it has to be selective for a given target. The selectivity of the newly synthesized compounds 14, 15, and 33·HCl toward GCase was then investigated, evaluating their inhibition at 1 mM concentration toward six other lysosomal glycosidases (namely, α-and β-mannosidases, α- and β-galactosidases, α-fucosidase, and α-glucosidase) in cell homogenates (leucocytes or lymphocytes) isolated from healthy donors. […] Indeed, only moderate inhibitory activity (ca. 50%) was found toward human β-galactosidase for both piperidines 14 and 15, while negligible inhibitory activity was detected in all other cases.
The effect of 1 mM concentration of 14, 15, and 33·HCl was assayed toward six lysosomal glycosidases other than GCase, namely, α-mannosidase, β-mannosidase, α-galactosidase, β-galactosidase, α-fucosidase from leukocytes isolated from healthy donors (controls) and α-glucosidase from lymphocytes isolated from healthy donors’ flesh blood (controls). Isolated leukocytes or lymphocytes were disrupted by sonication, and a micro BCA protein assay kit (Sigma-Aldrich) was used to determine the total protein amount for the enzymatic assay, according to the manufacturer’s instructions (for more details, see the Supporting Information section).
Selectivity of compounds 14, 15 and 33.HCl towards lysosomal enzymes.
The effect of 1 mM concentration of 14, 15 and 33.HCl was assayed towards six lysosomal glycosidases other than GCase, namely: α-mannosidase, β-mannosidase, α-galactosidase, β-galactosidase, α-fucosidase from leukocytes isolated from healthy donors (controls) and α-glucosidase from lymphocytes isolated from healthy donors’ flesh blood (controls). Isolated leukocytes or lymphocytes were disrupted by sonication, and a micro BCA protein assay kit (Sigma–Aldrich) was used to determine the total protein amount for the enzymatic assay, according to the manufacturer instructions. […]
Molecular Devices). Inhibition is given with respect to the control (without azasugar). Data are mean SD (n=3). […]
Inhibition is given with respect to the control (without azasugar). Data are mean SD (n=3). […]
(1 picture or pasted object on this page, not shown here) […]
α-Fucosidase activity was measured in a flat -bottomed 96 -well plate. Azasugar solution (3 μL), 4.29 μg/μL leukocytes homogenate 1:3 (7 μL), and substrate 4 -methylumbe lliferyl α-L-fucopyranoside (1.51 mM, 20 μL, Sigma –Aldrich) in Na phosphate/citrate buffer (0.2:0.1, M/M, pH 5.5) were incubated at 37 °C for 1 h. […]
Data are mean SD (n=3). S74 […]
α-Glucosidase activity was measured in a flat –bottomed 96 well plate. Azasugar solution (3 µL), 4.29 µg/µL lymphocytes homogenate (7µL) and 20 µL of substrate solution of 4 -methylumbelliferyl -α-D-glucopyranoside (Sigma -Aldrich) in Na a cetate buffer (0.2 M, pH 4.0) were incubated for 1 h at 37 °C. The reaction was stopped by the addition of a solution of sodium carbonate (200 µL; 0.5M, pH 10.7) containing Triton X -100 (0.0025 %), and the fluorescence of 4 -methylumbelliferone released by α-glucosidase activity was measured in […]
respect to the control (without azasugar). Data are means of 3 values. […]
Figure S 48. Activity of a panel of 6 hu man lysosomal glycosidases in the presence of compounds 14, 15 and 33.HCl (1 mM ). The corresponding calculated percentage of inhibition is indicated above each bar.

Assay [2] has as its target T2, α-glucosidase (Homo sapiens, UniProt P10253).
T2 construct: α-glucosidase from lymphocytes isolated from healthy donors; from tissue; host or cells: lymphocytes from healthy donors' blood, sonicated homogenate
The assay is described as follows: Human lysosomal glycosidase selectivity screening (lymphocyte homogenate). The format is biochemical. The note with it: 1 mM, read-out: percentage of inhibition, α-Glu. The method, then:
as §1, with “cases. […]” for “cases.”
α-Mannosidase activity was measured in a flat-bottomed 96-well plate. […] The reaction was stopped by addition of sodium carbonate (200 μL; 0.5M, pH 10.7) containing Triton X -100 (0.0025 %), and the fluorescence 4 -methylumbelliferone release d by α-mannosidase activity was measured in SpectraMax M2 microplate reader ( λex=365 nm, λem=435 nm; Molecular Devices). […]
β-Mannosidase activity was measured in a flat -bottomed 96 -well plate. […] The reaction was stopped by addition of sodium carbonate (200 μL; 0.5M, pH 10.7) containing Triton X -100 (0.0025 %), and the fluorescence of 4 -methylumbelliferone released by β-mannosidase activity was meas ured in SpectraMax M2 microplate reader ( λex=365 nm, λem=435 nm; […]

T1 sequence (O00754 50-1011): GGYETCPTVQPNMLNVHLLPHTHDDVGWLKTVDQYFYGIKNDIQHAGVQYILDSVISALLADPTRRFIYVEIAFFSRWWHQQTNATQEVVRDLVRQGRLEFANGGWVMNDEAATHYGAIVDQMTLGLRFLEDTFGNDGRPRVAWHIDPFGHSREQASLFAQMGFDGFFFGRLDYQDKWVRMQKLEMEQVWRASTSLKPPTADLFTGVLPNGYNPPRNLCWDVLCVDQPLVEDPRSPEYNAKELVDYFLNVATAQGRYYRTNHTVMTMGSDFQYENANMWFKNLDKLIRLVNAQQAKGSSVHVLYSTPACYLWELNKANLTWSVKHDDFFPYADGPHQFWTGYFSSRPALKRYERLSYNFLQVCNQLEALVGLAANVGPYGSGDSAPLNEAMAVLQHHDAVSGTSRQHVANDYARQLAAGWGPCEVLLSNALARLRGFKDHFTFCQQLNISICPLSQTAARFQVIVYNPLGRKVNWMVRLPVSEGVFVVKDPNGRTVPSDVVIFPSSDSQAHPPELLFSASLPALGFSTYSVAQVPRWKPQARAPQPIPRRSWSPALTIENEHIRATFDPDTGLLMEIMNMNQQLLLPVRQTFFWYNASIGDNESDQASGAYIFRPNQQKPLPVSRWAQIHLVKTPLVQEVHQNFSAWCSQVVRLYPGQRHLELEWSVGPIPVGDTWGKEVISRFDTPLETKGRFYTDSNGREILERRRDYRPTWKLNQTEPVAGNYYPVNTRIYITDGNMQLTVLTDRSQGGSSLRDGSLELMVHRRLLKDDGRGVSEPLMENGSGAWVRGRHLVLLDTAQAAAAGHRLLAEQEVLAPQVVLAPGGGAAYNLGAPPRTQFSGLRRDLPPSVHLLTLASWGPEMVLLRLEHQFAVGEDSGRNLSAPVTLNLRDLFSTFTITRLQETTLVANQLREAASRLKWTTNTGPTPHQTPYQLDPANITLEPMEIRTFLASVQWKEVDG

`CCCCCCCC[C@H]1[C@@H](O)[C@H](O)[C@H](O)CN1CCCCCCCC` [compound 14, (2S,3R,4R,5R)-1,2-Dioctylpiperidine-3,4,5-triol]: the inhibition at 1000 µM came out at 4% in assay [1] and 18% in assay [2].

As for `CCCCCCCC[C@@H]1[C@@H](O)[C@H](O)[C@H](O)CN1CCCCCCCC` [compound 15, (2R,3R,4R,5R)-1,2-Dioctylpiperidine-3,4,5-triol], the inhibition at 1000 µM in assay [1] is 7%.

In general, inhibition refers to the relative decrease from the control value, in per cent.
